Test [1] addresses Human sodium/glucose co-transporter type 1 (SGLT1) (Homo sapiens (Human), UniProt P13866). As to the kind of experiment: In vitro human SGLT1 inhibition assay (14C-AMG uptake). In kind it is cell-based. The following applies: HEK293 cells expressing human HA-SGLT1, 14C-AMG uptake. In outline: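 Uptake of 14C-AMG (100 nCi) was measured by scintillation counting after 1–2 h at 37 °C, 5% CO2, with or without compound. The buffer was pH 7.3 with 140 mM NaCl, 1 mM CaCl2, 1 mM MgCl2 and 1 mg/mL BSA. Cells were a stable HEK293 line carrying HA-SGLT1 (human), plated overnight at 30,000 per well.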

Test [2] addresses Human sodium/glucose co-transporter type 2 (SGLT2) (Homo sapiens (Human), UniProt P31639). As to the kind of experiment: In vitro human SGLT2 inhibition assay (14C-AMG uptake). In kind it is cell-based. Particulars: HEK293 cells expressing human HA-SGLT2, 14C-AMG uptake. In outline:
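Uptake of 14C-AMG (100 nCi) was followed in a stable HEK293 HA-SGLT2 line over 1-2 h at 37 °C with or without compound. Buffer: 140 mM NaCl, 10 mM HEPES, 5 mM Tris, 1 mg/mL BSA, pH 7.3. Readout was scintillation counting after washing.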

Some results are limits rather than exact numbers.

Chain of Human sodium/glucose co-transporter type 2 (SGLT2) (P31639 whole entry): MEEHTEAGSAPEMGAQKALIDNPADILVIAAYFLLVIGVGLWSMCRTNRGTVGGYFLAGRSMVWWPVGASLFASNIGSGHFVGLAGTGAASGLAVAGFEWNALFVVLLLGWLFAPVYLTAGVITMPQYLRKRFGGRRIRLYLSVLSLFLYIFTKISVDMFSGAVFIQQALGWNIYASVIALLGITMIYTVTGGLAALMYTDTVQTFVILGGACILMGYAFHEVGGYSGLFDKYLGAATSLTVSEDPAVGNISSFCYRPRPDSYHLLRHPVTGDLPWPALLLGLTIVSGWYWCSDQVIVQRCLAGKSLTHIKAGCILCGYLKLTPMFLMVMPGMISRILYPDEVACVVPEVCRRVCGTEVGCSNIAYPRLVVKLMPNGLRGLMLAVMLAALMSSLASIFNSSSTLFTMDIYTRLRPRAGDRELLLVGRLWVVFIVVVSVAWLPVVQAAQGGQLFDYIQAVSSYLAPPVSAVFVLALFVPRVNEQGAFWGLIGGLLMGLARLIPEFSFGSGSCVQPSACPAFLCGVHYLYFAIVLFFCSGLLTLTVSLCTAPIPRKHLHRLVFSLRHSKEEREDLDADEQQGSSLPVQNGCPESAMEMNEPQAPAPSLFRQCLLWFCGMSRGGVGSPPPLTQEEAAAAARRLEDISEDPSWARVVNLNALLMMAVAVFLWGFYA
Chain of Human sodium/glucose co-transporter type 1 (SGLT1) (P13866 whole entry): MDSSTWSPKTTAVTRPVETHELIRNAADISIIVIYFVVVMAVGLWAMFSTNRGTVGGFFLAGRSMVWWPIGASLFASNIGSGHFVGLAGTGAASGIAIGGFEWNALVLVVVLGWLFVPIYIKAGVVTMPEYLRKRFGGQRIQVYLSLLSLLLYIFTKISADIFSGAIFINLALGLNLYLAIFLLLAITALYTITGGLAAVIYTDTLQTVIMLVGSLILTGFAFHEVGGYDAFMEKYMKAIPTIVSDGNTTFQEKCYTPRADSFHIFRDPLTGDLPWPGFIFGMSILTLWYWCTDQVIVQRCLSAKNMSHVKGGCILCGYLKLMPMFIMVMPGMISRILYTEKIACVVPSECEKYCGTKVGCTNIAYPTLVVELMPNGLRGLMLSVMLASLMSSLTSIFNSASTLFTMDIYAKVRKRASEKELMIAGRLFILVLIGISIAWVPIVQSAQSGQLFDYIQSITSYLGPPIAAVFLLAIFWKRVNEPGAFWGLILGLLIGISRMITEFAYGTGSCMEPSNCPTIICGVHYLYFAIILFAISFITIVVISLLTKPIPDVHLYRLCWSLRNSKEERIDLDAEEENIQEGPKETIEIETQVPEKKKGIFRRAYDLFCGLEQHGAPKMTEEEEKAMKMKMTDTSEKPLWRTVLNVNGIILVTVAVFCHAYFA

`CS[C@H]1O[C@@H](c2ccc(C)c(Cc3ccc(OCCCC(=O)NCC(C)(C)C(=O)N4CCN(C)CC4)cc3)c2)[C@H](O)[C@@H](O)[C@@H]1O` [N-(2,2-dimethyl-3-(4-methylpiperazin-1-yl)-3-oxopropyl)-4-(4-(2-methyl-5-((2S,3R,4R,5S,6R)-3,4,5-trihydroxy-6-(methylthio)tetrahydro-2H-pyran-2-yl)benzyl)phenoxy)butanamide]: the concentration for half-maximal inhibition (IC50) in test [1] and in test [2] was under 10 nM each time.

As for `CS[C@H]1O[C@@H](c2ccc(C)c(Cc3ccc(Cl)cc3)c2)[C@H](O)[C@@H](O)[C@@H]1O` [(2S,3R,4R,5S,6R)-2-(3-(4-chlorobenzyl)-4-methylphenyl)-6-(methylthio)tetrahydro-2H-pyran-3,4,5-triol], the IC50 (usually the concentration needed to halve the response being measured) was under 100 nM in test [1] and under 10 nM in test [2].

On to `CS[C@H]1O[C@@H](c2ccc(C)c(Cc3ccc(CCCC(=O)O)cc3)c2)[C@H](O)[C@@H](O)[C@@H]1O` [4-(4-(2-methyl-5-((2S,3R,4R,5S,6R)-3,4,5-trihydroxy-6-(methylthio)tetrahydro-2H-pyran-2-yl)benzyl)phenyl)butanoic acid], for which the results for the IC50 in test [1] and in test [2] were under 100 nM and under 10 nM, respectively.

On to `CS[C@H]1O[C@@H](c2ccc(C)c(Cc3ccc(CCCC(=O)NC(C)(C)C(=O)N4CCN(C(=O)OC(C)(C)C)CC4)cc3)c2)[C@H](O)[C@@H](O)[C@@H]1O` [tert-butyl 4-(2-methyl-2-(4-(4-(2-methyl-5-((2S,3R,4R,5S,6R)-3,4,5-trihydroxy-6-(methylthio)tetrahydro-2H-pyran-2-yl)benzyl)phenyl)butanamido)propanoyl)piperazine-1-carboxylate], for which the half-inhibitory concentration (IC50) in test [1] and in test [2] was under 10 nM in each case.

Take `CS[C@H]1O[C@@H](c2ccc(C)c(Cc3ccc(CCCC(=O)NC(CO)(CO)CO)cc3)c2)[C@H](O)[C@@H](O)[C@@H]1O` [N-(1,3-dihydroxy-2-(hydroxymethyl)propan-2-yl)-4-(4-(2-methyl-5-((2S,3R,4R,5S,6R)-3,4,5-trihydroxy-6-(methylthio)tetrahydro-2H-pyran-2-yl)benzyl)phenyl)butanamide]: the IC50 in test [1] and in test [2] was under 10 nM in each case.

On to `CS[C@H]1O[C@@H](c2ccc(C)c(Cc3ccc(CCCCNC(=N)N)cc3)c2)[C@H](O)[C@@H](O)[C@@H]1O` [1-(4-(4-(2-methyl-5-((2S,3R,4R,5S,6R)-3,4,5-trihydroxy-6-(methylthio)tetrahydro-2H-pyran-2-yl)benzyl)phenyl)butyl)guanidine], for which the IC50 in test [1] and in test [2] was under 10 nM in each case.

For the compound `CS[C@H]1O[C@@H](c2ccc(C)c(Cc3ccc(OCCCC(=O)NC4(C(=O)N5CCN(C)CC5)CCCC4)cc3)c2)[C@H](O)[C@@H](O)[C@@H]1O` [4-(4-(2-methyl-5-((2S,3R,4R,5S,6R)-3,4,5-trihydroxy-6-(methylthio)tetrahydro-2H-pyran-2-yl)benzyl)phenoxy)-N-(1-(4-methylpiperazine-1-carbonyl)cyclopentyl)butanamide], the half-maximal inhibitory concentration (IC50) in test [1] and in test [2] was under 10 nM in each case.

In the case of `CS[C@H]1O[C@@H](c2ccc(Cl)c(Cc3ccc(OCCNC(=N)N)cc3)c2)[C@H](O)[C@@H](O)[C@@H]1O` [1-(2-(4-(2-chloro-5-((2S,3R,4R,5S,6R)-3,4,5-trihydroxy-6-(methylthio)tetrahydro-2H-pyran-2-yl)benzyl)phenoxy)ethyl)guanidine], the IC50 in test [1] and in test [2] was under 10 nM each time.

In the case of `CS[C@H]1O[C@@H](c2ccc(C)c(Cc3ccc(OCCCC(=O)N[C@@H](CC(N)=O)C(N)=O)cc3)c2)[C@H](O)[C@@H](O)[C@@H]1O` [(S)-2-(4-(4-(2-methyl-5-((2S,3R,4R,5S,6R)-3,4,5-trihydroxy-6-(methylthio)tetrahydro-2H-pyran-2-yl)benzyl)phenoxy)butanamido)succinamide], the IC50 in test [1] was under 100 nM; in test [2] it was under 10 nM.

Take `CS[C@H]1O[C@@H](c2ccc(C)c(Cc3ccc(OCCNC4(C(N)=O)CCCC4)cc3)c2)[C@H](O)[C@@H](O)[C@@H]1O` [1-((2-(4-(2-methyl-5-((2S,3R,4R,5S,6R)-3,4,5-trihydroxy-6-(methylthio)tetrahydro-2H-pyran-2-yl)benzyl)phenoxy)ethyl)amino)cyclopentanecarboxamide]: the IC50 is under 100 nM in test [1] and under 10 nM in test [2].

With `CS[C@H]1O[C@@H](c2ccc(C)c(Cc3ccc(CCCCC(=O)NC(C)(C)CO)cc3)c2)[C@H](O)[C@@H](O)[C@@H]1O` [N-(1-hydroxy-2-methylpropan-2-yl)-5-(4-(2-methyl-5-((2S,3R,4R,5S,6R)-3,4,5-trihydroxy-6-(methylthio)tetrahydro-2H-pyran-2-yl)benzyl)phenyl)pentanamide], the IC50 in test [1] and in test [2] was under 10 nM throughout.

Consider `CS[C@H]1O[C@@H](c2ccc(C)c(Cc3ccc(OCCNCC(C)(C)C(N)=O)cc3)c2)[C@H](O)[C@@H](O)[C@@H]1O` [2,2-dimethyl-3-((2-(4-(2-methyl-5-((2S,3R,4R,5S,6R)-3,4,5-trihydroxy-6-(methylthio)tetrahydro-2H-pyran-2-yl)benzyl)phenoxy)ethyl)amino)propanamide], for which the IC50 in test [1] and in test [2] was under 10 nM throughout.

As to `CS[C@H]1O[C@@H](c2ccc(C)c(Cc3ccc(CCCC(=O)NC4(C(=O)N5CCN(C)CC5)CC4)cc3)c2)[C@H](O)[C@@H](O)[C@@H]1O` [4-(4-(2-methyl-5-((2S,3R,4R,5S,6R)-3,4,5-trihydroxy-6-(methylthio)tetrahydro-2H-pyran-2-yl)benzyl)phenyl)-N-(1-(4-methylpiperazine-1-carbonyl)cyclopropyl)butanamide], the half-inhibitory concentration (IC50) in test [1] and in test [2] was under 10 nM each time.

Turning to `CS[C@H]1OC(c2ccc(C)c(Cc3ccc(OCCCNC4(C(N)=O)CCCC4)cc3)c2)[C@H](O)[C@@H](O)[C@@H]1O` (stereo partly drawn) [1-((3-(4-(2-methyl-5-((3R,4R,5S,6R)-3,4,5-trihydroxy-6-(methylthio)tetrahydro-2H-pyran-2-yl)benzyl)phenoxy)propyl)amino)cyclopentanecarboxamide], the IC50 in test [1] and in test [2] was under 10 nM each time.

Regarding `CCN(CC)C(=O)CCCOc1ccc(Cc2cc([C@@H]3O[C@H](SC)[C@@H](O)[C@H](O)[C@H]3O)ccc2Cl)cc1` [4-(4-(2-chloro-5-((2S,3R,4R,5S,6R)-3,4,5-trihydroxy-6-(methylthio)tetrahydro-2H-pyran-2-yl)benzyl)phenoxy)-N,N-diethylbutanamide], the IC50 is under 100 nM in test [1] and under 10 nM in test [2].

Consider `CS[C@H]1O[C@@H](c2ccc(Cl)c(Cc3ccc(OCCNC(=O)C(C)(C)CO)cc3)c2)[C@H](O)[C@@H](O)[C@@H]1O` [N-(2-(4-(2-chloro-5-((2S,3R,4R,5S,6R)-3,4,5-trihydroxy-6-(methylthio)tetrahydro-2H-pyran-2-yl)benzyl)phenoxy)ethyl)-3-hydroxy-2,2-dimethylpropanamide], for which the IC50 in test [1] and in test [2] was under 10 nM in each case.

For `CS[C@H]1O[C@@H](c2ccc(C)c(Cc3ccc(OCCCC(N)=O)cc3)c2)[C@H](O)[C@@H](O)[C@@H]1O` [4-(4-(2-methyl-5-((2S,3R,4R,5S,6R)-3,4,5-trihydroxy-6-(methylthio)tetrahydro-2H-pyran-2-yl)benzyl)phenoxy)butanamide], the IC50 is under 100 nM in test [1] and under 10 nM in test [2].

`Cc1ccc([C@@H]2O[C@H]([S+](C)[O-])[C@@H](O)[C@H](O)[C@H]2O)cc1Cc1ccc(CCCC(=O)NC(C)(C)C(=O)N2CCN(C)CC2)cc1` (stereo partly drawn) [N-(2-methyl-1-(4-methylpiperazin-1-yl)-1-oxopropan-2-yl)-4-(4-(2-methyl-5-((2S,3R,4R,5S,6R)-3,4,5-trihydroxy-6-(methylsulfinyl)tetrahydro-2H-pyran-2-yl)benzyl)phenyl)butanamide]: the IC50 is under 100 nM in test [1] and under 10 nM in test [2].

`CS[C@H]1O[C@@H](c2ccc(C)c(Cc3ccc(CCCC(=O)NCC(C)(C)C(=O)N4CCN(C)CC4)cc3)c2)[C@H](O)[C@@H](O)[C@@H]1O` [N-(2,2-dimethyl-3-(4-methylpiperazin-1-yl)-3-oxopropyl)-4-(4-(2-methyl-5-((2S,3R,4R,5S,6R)-3,4,5-trihydroxy-6-(methylthio)tetrahydro-2H-pyran-2-yl)benzyl)phenyl)butanamide]: the IC50 in test [1] and in test [2] was under 10 nM in each case.

For the compound `CS[C@H]1O[C@@H](c2ccc(C)c(Cc3ccc(OCCCC(=O)NC(C)(C)C(=O)NC4CCNCC4)cc3)c2)[C@H](O)[C@@H](O)[C@@H]1O` [N-(2-methyl-1-oxo-1-(piperidin-4-ylamino)propan-2-yl)-4-(4-(2-methyl-5-((2S,3R,4R,5S,6R)-3,4,5-trihydroxy-6-(methylthio)tetrahydro-2H-pyran-2-yl)benzyl)phenoxy)butanamide], the IC50 in test [1] and in test [2] was under 10 nM each time.

For the compound `CS[C@H]1O[C@@H](c2ccc(C)c(Cc3ccc(CCCC(=O)NC(C)(C)C(=O)NC4CCNCC4)cc3)c2)[C@H](O)[C@@H](O)[C@@H]1O` [N-(2-methyl-1-oxo-1-(piperidin-4-ylamino)propan-2-yl)-4-(4-(2-methyl-5-((2S,3R,4R,5S,6R)-3,4,5-trihydroxy-6-(methylthio)tetrahydro-2H-pyran-2-yl)benzyl)phenyl)butanamide], the IC50 in test [1] and in test [2] was under 10 nM in each case.

Source of the values: patent US9688710B2, “Inhibitors of sodium glucose cotransporter 1” (LEXICON PHARMACEUTICALS, INC., priority 2012, dated 2017).
